Earlier results on one compound are cited in US20240252511A1, “METHODS OF TREATING DEPRESSION AND ANXIETY” (Woolsey Pharmaceuticals, Inc., priority 2021, published 2024).

For this data set the following is noted: in vivo; 1 hydroxy (M3) metabolite.

Consider `O=S(=O)(c1cccc2c(O)nccc12)N1CCCNCC1` [M3, hydroxyfasudil], for which the half-life entry is on record as “about 8 hours”.
